Reference: patent US10590113B2, “6-hydroxy-4-oxo-1,4-dihydropyrimidine-5-carboxamides as APJ agonists” (priority 2016, dated 2020)
Where two headings read alike, the source gives them in different places.

Target: T1, human APJ receptor (Homo sapiens, UniProt P35414)
T1 construct: expressed in transfected cells; host or cells: HEK293
T1 sequence (P35414 1-380): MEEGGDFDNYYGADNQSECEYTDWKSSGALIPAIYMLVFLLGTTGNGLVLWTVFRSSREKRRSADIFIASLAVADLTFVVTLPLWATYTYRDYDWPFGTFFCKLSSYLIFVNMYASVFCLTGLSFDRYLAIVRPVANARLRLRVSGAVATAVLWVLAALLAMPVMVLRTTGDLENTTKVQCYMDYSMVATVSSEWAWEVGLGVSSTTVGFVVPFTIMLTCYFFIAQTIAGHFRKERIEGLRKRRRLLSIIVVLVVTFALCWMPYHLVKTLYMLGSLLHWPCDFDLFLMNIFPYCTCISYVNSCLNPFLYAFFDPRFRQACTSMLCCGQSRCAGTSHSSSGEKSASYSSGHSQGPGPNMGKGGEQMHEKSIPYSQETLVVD
Assay: Intracellular cAMP Accumulation Assay (APJ hcAMP, HTRF)
Format: cell-based
Procedure, shortened: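 Stably transfected HEK293 cells (5,000/well) incubated 30 min at room temperature with serially diluted compound, […] and 2 μM forskolin. cAMP measured by HTRF after 60 min with detection reagents, quantified against a cAMP standard curve; EC50 from variable-slope sigmoidal fit of inhibition of forskolin-stimulated cAMP.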

[1] = human APJ, cAMP accumulation, potency range class, read-out: hAPJ cAMP EC50 Potency range
[2] = human APJ, intracellular cAMP accumulation, read-out: hAPJ cAMP EC50 Potency range

EC50 [2]	SMILES	other results
	COc1cccc(OC)c1-n1c(-c2ccc(Cl)nc2)nc(=O)c(C(=O)N2CCC(c3ccc(F)cc3F)C2)c1O (single isomer, unassigned) [Example 279, 2-(6-chloropyridin-3-yl)-5-[3-(2,4-difluorophenyl)pyrrolidine-1-carbonyl]-1-(2,6-dimethoxyphenyl)-6-hydroxy-1,4-hydropyrimidin-4-one]	EC50 [1]: 0.01 to 10 nM
0.01 to 10 nM	CC[C@@H](c1cc(F)cc(F)c1)n1c(-c2ccn(CC)n2)nc(=O)c(C(=O)N2CCC(c3ccc(F)cn3)C2)c1O (single isomer, unassigned) [Example 216]	
	COc1cccc(OC)c1-n1c(-c2ccn(C)n2)nc(=O)c(C(=O)N2CCC(c3ncc(Cl)cc3F)C2)c1O (single isomer, unassigned) [Example 259, 5-[3-(5-chloro-3-fluoropyridin-2-yl)pyrrolidine-1-carbonyl]-1-(2,6-dimethoxyphenyl)-6-hydroxy-2-(1-methyl-1H-pyrazol-3-yl)-1,4-dihydropyrimidin-4-one]	EC50 [1]: 0.01 to 10 nM
	CCCCc1nc(=O)c(C(=O)N2CCC(c3ccncc3)C2)c(O)n1-c1c(OC)cccc1OC (single isomer, unassigned) [Example 47, 2-butyl-1-(2,6-dimethoxyphenyl)-6-hydroxy-5-[3-(pyridin-4-yl)pyrrolidine-1-carbonyl]-1,4-dihydropyrimidin-4-one]	EC50: 0.01 to 10 nM
0.01 to 10 nM	CCCCc1nc(=O)c(C(=O)N2CC[C@H](OCc3ccccc3)C2)c(O)n1-c1c(OC)cccc1OC [Example 63, 5-[(3S)-3-(benzyloxy)pyrrolidine-1-carbonyl]-2-butyl-1-(2,6-dimethoxyphenyl)-6-hydroxy-1,4-dihydropyrimidin-4-one]	
0.01 to 10 nM	CCCCc1nc(=O)c(C(=O)N2CC[C@H](c3ccccc3)C2)c(O)n1[C@@H](COC)c1ccccc1 [Example 116, 2-butyl-6-hydroxy-3-[(1R)-2-methoxy-1-phenylethyl]-5-[(3R)-3-phenylpyrrolidine-1-carbonyl]-3,4-dihydropyrimidin-4-one]	

SMILES	EC50 [2]	other results
COc1cccc(OC)c1-n1c(COC(C)(C)C)nc(=O)c(C(=O)N2CC[C@H](c3ccccc3)C2)c1O [Example 51, 2-[(tert-butoxy)methyl]-1-(2,6-dimethoxyphenyl)-6-hydroxy-5-[(3R)-3-phenylpyrrolidine-1-carbonyl]-1,4-dihydropyrimidin-4-one]	0.01 to 10 nM	
